As a reminder, the melting point is the temperature, or range, at which the solid turns liquid. By EC50 is commonly meant the concentration giving half of the maximal effect.

SMILES strings stand for the structures.

The source of these data is patent US6518315B1, “Medicinal uses of phenylaikanols and derivatives” (The University of Sydney, priority 1997, dated 2003).

The target in data set [1] is T1, Ca^2+-ATPase of dog cardiac SR (Canis lupus familiaris, UniProt O46674).
T1 construct: SR membrane (75 μg/ml): 24 μl; from tissue; host or cells: dog cardiac sarcoplasmic reticulum membranes
T1 sequence (O46674 whole entry): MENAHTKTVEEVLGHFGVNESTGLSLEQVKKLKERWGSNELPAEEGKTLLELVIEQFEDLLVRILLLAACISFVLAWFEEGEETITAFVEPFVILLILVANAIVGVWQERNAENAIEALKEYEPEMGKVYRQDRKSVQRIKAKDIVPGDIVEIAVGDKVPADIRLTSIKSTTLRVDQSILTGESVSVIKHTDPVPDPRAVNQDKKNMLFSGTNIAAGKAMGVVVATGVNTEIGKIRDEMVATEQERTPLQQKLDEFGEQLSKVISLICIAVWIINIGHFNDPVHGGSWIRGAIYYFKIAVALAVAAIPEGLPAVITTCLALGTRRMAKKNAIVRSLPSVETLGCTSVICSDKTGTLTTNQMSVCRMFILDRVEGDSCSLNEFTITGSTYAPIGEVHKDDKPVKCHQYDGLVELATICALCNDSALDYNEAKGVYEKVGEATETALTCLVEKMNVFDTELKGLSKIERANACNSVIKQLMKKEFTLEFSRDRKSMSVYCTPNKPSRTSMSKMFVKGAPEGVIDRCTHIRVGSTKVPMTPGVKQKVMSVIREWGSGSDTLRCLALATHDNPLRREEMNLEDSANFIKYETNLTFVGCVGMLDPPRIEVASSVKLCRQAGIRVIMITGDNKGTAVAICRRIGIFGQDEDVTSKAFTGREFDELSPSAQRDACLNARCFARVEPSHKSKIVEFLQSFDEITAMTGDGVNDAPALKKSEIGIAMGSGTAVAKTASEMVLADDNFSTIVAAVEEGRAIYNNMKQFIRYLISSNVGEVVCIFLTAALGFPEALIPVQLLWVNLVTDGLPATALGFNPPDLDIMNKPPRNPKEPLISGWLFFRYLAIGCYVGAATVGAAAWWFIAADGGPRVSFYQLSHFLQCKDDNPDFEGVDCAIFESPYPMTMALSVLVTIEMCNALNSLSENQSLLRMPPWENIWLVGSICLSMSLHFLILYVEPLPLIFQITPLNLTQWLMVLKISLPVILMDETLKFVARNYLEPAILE
Nature of the data set: Sarcoplasmic reticulum Ca^2+-ATPase assay. It is filed as biochemical. Particulars: 0 μM = 100. As to the method: A. Sarcoplasmic Reticulum Ca^2+-ATPase Assay
SR membrane (75 μg/ml): 24 μl
Test substance: appropriate volumes to give a dose-effect concentration
Incubation buffer: up to 240 μl
A portion at each concentration (54 μl) was aliquoted into 4 designated wells of the microplate (two of four wells were controls). Each well was mixed with ATP solution (20 mM, 6 μl), except the controls, using an 8 channel pipette. The controls were assayed in the absence of ATP or calcium.
The plate was incubated with the lid on, for 30 min at 37° C., colour reagent (160 μl) was then added and mixed with citrate solution (34%, 30 μl). The plate was developed at room temperature for 30 min then absorbance at 655 nm was read from the microplate reader. The Ca^2+-ATPase activity was quantitated, from a Pi standard curve, as concentration of liberated inorganic phosphate.
Stock solutions (10 mM) of test substance were prepared in DMSO, then series dilutions were made either in DMSO or in 1M HEPES to produce the dose-response concentrations. The maximum concentration of DMSO in the final assay solution was 2.5%.
Each concentration of test substance was assayed in duplicate in the presence and absence of ATP or calcium. Phosphate standards are run on each plate as follows:
Effect of gingerols and their derivatives on the Ca^2+-ATPase of dog cardiac SR.

Data set [2] has as its system brine shrimp (Artemia salina Leach). In words: Brine shrimp assay. It is filed as in vivo. The source says: Toxicity—Brine Shrimp Assay
The brine shrimp assay procedure determines LC50 values of active compounds. Activities of a broad range of known active compounds are manifested as toxicity to brine shrimp (Artemia salina Leach). There are many applications of the assay including analysis of toxic substances, anaesthetics, morphine-like substances and cocarcinogenicity of phorbol esters.
DMSO (dimethyl sulfoxide) was the solvent of choice because of its good solubilising properties and also because the substances used in the ATPase inhibition assays were already prepared with DMSO.
The method for testing solvent toxicity used was basically that reported by J L McLaughlin in Methods of Plant Biochemistry (1991), vol. 6 (K Hostettman, ed.), Academic Press, London, 1-32. DMSO solutions of the substances to be tested were added directly to the vials containing the brine shrimp. As the concentration of DMSO is that we wished to use was higher than the recommended 1% v/v testing of the toxicity of the DMSO was therefore necessary. The concentrations of DMSO tested on the shrimp, along with the results from the assay which was done in duplicate are listed below.
Brine shrimp toxicity was assayed, except for some minor modifications, according to the method of McLaughlin et al as reported in Brine Shrimp: A convenient bioassay for active plant constituents, B N Meyer, N R Ferrigni, J E Putnam, L B Jacobsen, D E Nichols and J L McLaughlin in Planta Medica (1982), 45, 31-34 and Crown gall tumours on potato discs and brine shrimp lethality: Two simple bioassays for higher plant screening and fractionation. J L McLaughlin. Methods of Plant Biochemistry (1991), vol. 6 (K Hostettman, ed.), Academic Press, London, 1-32. Ten shrimp were transferred to each of the vials and the volume adjusted to 4.9 mL. Each dose was performed in triplicate, including the control. In quick succession, the appropriate volume of additional DMSO for each dose, required to achieve a final concentration of 2%, was added before the appropriate volume of test solution. The vials were gently mixed and the time noted. After 24 hours, the number of survivors were counted and % mortality was determined. The test compounds were assayed at concentrations of 100 μM, 25 μM, 5 μM, 1 μM and 0.2 μM (and where appropriate concentrations of 0.04 μM and 0.008 μM).
The brine shrimp were able to survive without food in the vials over the 24 hour period and were therefore not fed.
The dose-response curves were constructed using the Sigmaplot computer program and the LC50 value was calculated from the intersection point of the curve and the 50% mortality line. The LC50 values were expressed in both μM and μg/mL.
For substances with low toxicity, the greater sign “>” indicated the highest concentration at which the assay was carried out as precipitation of the substances occurred above that concentration.

For another data set, the system named is guinea pig atria. In words: Organ bath assay, isolated guinea pig atria (rate and force of contraction). The method, then: Male guinea pigs, 3-4 weeks old, were killed by rapid cervical dislocation without induced anaesthesia. Then, the guinea pigs were dissected to isolate the atria which were immediately mounted vertically in an organ bath containing Krebs-Henseleit solution oxygenated with carbogen.
One gram tension was applied to the atria and the base line continuously adjusted until it was stable for 20 mins. The rate and force of contraction were recorded using Mac Lab equipment.
Test substances in DMSO were assayed to a maximum concentration of 50 μM at a final concentration of 2.5% of DMSO.

The test system of the next data set is rat mesenteric artery. Nature of the data set: Vasodilation on rat mesenteric artery. The following applies: for potency in relaxing rat mesenteric artery / vascular bed, in words: preliminary investigation. The source says: The proposed mechanism of neuropeptide release by 1-(4-hydroxy-3-methoxyphenyl)dodecan-3-ol, similar to that of capsaicin, was supported by studies in blood vessels. […] This contrasts with capsaicin which has similar activity in Guinea pig atria (force and rate) and relaxing rat mesenteric artery.

Data set [3] has as its system capsaicin-sensitive DRG neuronal cells. In words: [Ca^2+]i transients in DRG neuronal cells in culture. It is filed as cell-based, rat. Particulars: for Peak [Ca^2+]i (Average ± SD): 10 μM applied for 1 min, 2 mM Ca^2+. The source says: Effect of Gingerol Analogues Towards Rat Dorsal Root Ganglia
Capsaicin, the pungent component in peppers of the Capsicum genus, family Solanaceae, has the ability to excite a subset of sensory neurons, which include polymodal nociceptors and warm thermoceptors (Fitzgerald, 1983) by opening non-selective cation channels that are permeable to Na^+, K^+, and Ca^2+ (Bevan and Szolcsanyi, 1990). It has been shown that capsaicin evoked a concentration-dependent rise in [Ca^2+]i in cultured dorsal root ganglion neurons. The duration of the elevation of [Ca^2+]i depended on the concentration of capsaicin (Choleswinski, et al., 1993). In this investigation peak [Ca^2+]i transient measurements are used as a model for testing gingerol analogues.
DRG from neonatal (3-5 days old) rat or adult Sprague-Dawley rats were incubated in Hanks CMF saline with 0.05% collagenase and 0.25% trypsin for 25 min at 37° C. Individual cells were obtained by trituration with fire polished Pasteur pipettes of diminishing diameters. Neurones were isolated from the cell suspension in 30% Percoll and then plated on collagen coated coverslips or in 24-well plates, then cultured in neurobasal medium with B27 supplement, 50 ng/ml 2.5 S nerve growth factor, 2 mM 1-glutamine and 100 U/ml penicillin/streptomycin. Cultures were maintained at 37° C. with 5% CO2. 30% Percoll increases the percentage of capsaicin-sensitive DRG neurones up to 70%. For peak [Ca^2+]i transients measurements, cells on coverslips were incubated with 5 μM Fura-2 AM for 30 min at 37° C. The coverslips were then mounted on a chamber attached to a fast sample application perfusion system which allows changing solutions in the second range. Recordings were made on the stage of a Nikon Diaphot inverted microscope fitted with a Nikon 40×Fluo (NA 0.85) DL Ph3 or 40×Fluo (NA 1.3) oil objective. [Ca^2+]i was calculated from dual excitation wavelength (340/380 nm) fluorescence measurements following an intracellular calibration procedure by the Grynkiewicz equation, using MCID M2/M4 v.3.0 (Imaging Res. Inc.) software. Cells were continuously perfused with a solution consisting of 140 mM NaCl, 2 mM CaCl2, 5 mM KCl, 20 mM HEPES, 10 mM glucose, pH 7.4. To study KCl evoked depolarisation, 50 mM NaCl was replaced by equimolar KCl. Cytoplasmic localisation of Fura-2 was tested with the Mn^2+ quenching technique (Dedov and Roufogalis, 1998). All experiments were performed at room temperature (20-23° C.).
Typical changes in [Ca^2+]i upon depolarisation were evoked by 50 mM KCl and by application of 1 μM capsaicin; both were applied for 30 sec. Capsaicin-evoked peak [Ca^2+]i transients are characterised by a fast rise and long-steady state [Ca^2+]i clearance from the cytoplasm. In capsaicin-sensitive cells the half-time of cytoplasmic Ca^2+ clearance was proportional to the amplitudes of peak [Ca^2+]i transients.
To examine the effect of gingerol derivatives, one or several compounds in succession at a concentration of 10 μM were applied for 1 min to the DRG neuronal cells followed by washing out for 4 min with physiological solution. To the capsaicin-sensitive cells, 10 μM capsaicin and 50 mM KCl were applied, respectively, to confirm the viability of the cells. In addition, morphological appearances of the cells were also examined at the end of experiment. […]

The next data set relates to cardiac Purkinje fibres. Nature of the data set: Cardiac electrophysiology on Purkinje fibres. Further details: species or system dog. Particulars: up to 10 μM. The method, then:
Cardiac Electrophysiological Activities of Gingerol and its Analogue
The basic cardiac electrophysiological properties were assessed using cardiac Purkinje fibres obtained from adult mongrel dogs.
Electrophysiology was carried out on dog heart purkinje fibre to test for potential arrhythmia. […] At high concentration (50 μM), however, [8]-gingerol reduced approximate 80% and 50% of action potential duration at 50% and 90% repolarisations respectively. Whereas the analogue reduced 75% and 30% respectively.

In the case of `CCCCCCCC(=O)CCCCc1ccc(O)c(OC)c1` [1-(4-hydroxy-3-methoxyphenyl)dodecan-5-one], the “SR Ca^2+-ATPase activity” value is reported as 113 in data set [1] (5 μM); 136 in data set [1] (10 μM); 158 in data set [1] (25 μM); 126 in data set [1] (50 μM); 87 in data set [1] (100 μM); 18 in data set [1] (200 μM).

Turning to `C[S+](C)[O-]` [DMSO, dimethyl sulfoxide], the “% Deaths” value in data set [2] (1 % v/v) is 0%; in data set [2] (2 % v/v), 0%; in data set [2] (3 % v/v), 0%; in data set [2] (4 % v/v), 0%; in data set [2] (5 % v/v), 9%; in data set [2] (7 % v/v), 12%. The “% Deaths” value was 18% in data set [2] (9 % v/v); 57% in data set [2] (11 % v/v); 96% in data set [2] (13 % v/v); 100% in data set [2] (15 % v/v); 100% in data set [2] (20 % v/v); 100% in data set [2] (25 % v/v).

`CCCCCCCC(O)CC(=O)C=Cc1ccc(O)c(OC)c1` (centres unmarked) [[8]-dehydrogingerol, 5-hydroxy-1-(4-hydroxy-3-methoxyphenyl)dodecan-1-ene-3-one, reference compound]: in the data set with guinea pig atria, the “time for tension to reach maximum after addition of a dose” value was “a few mins”.

Turning to `CCCCCCCC(O)CC(=O)CCc1ccc2c(c1)OCO2` (centres unmarked) [5-hydroxy-1-(3,4-methylenedioxyphenyl)dodecan-3-one], the “potency in relaxing rat mesenteric artery / vascular bed, in words” value in the data set with rat mesenteric artery was “showed potency”.

As to `COc1cc(CNC(=O)CCCC/C=C/C(C)C)ccc1O` [Capsaicin, reference compound], the “evoked [Ca^2+]i transients in Ca^2+-free medium or with ruthenium red” value in data set [3] (Ca^2+-free medium or ruthenium red (1 μM)) was “abolished or greatly diminished”.

For `CCCCCCCC(O)CC(=O)CCc1ccc(O)c(OC)c1` (centres unmarked) [[8]-gingerol, 5-hydroxy-1-(4-hydroxy-3-methoxyphenyl)dodecan-3-one, reference compound], in the data set on guinea pig atria, the “time to increased cardiac contractility after addition of the drug” value came to 15 s. Moreover, the “effect on rate of depolarization, amplitude and duration of action potential (50% and 90%)” value in the data set on cardiac Purkinje fibres is “insignificant effect”.

Consider `CCCCCCCCC(C)(O)CCc1ccc(O)c(OC)c1` (centres unmarked) [3-methyl-1-(4-hydroxy-3-methoxyphenyl)undecan-3-ol], for which the “Peak [Ca^2+]i (Average ± SD)” value in data set [3] was 0 nM.

With `CCCCCCCCCC(=O)CCc1ccc(O)c(OC)c1` [[8]-paradol, 1-(4-hydroxy-3-methoxyphenyl)dodecan-3-one, reference compound], in the data set with rat mesenteric artery, the “potency in relaxing rat mesenteric artery / vascular bed, in words” value is “showed potency”. Besides, the “Peak [Ca^2+]i (Average ± SD)” value in data set [3] was found to be 200 nM.

`CCCCCCCCCC(O)C(=O)c1ccc(O)c(OC)c1` (centres unmarked) [2-hydroxy-1-(4-hydroxy-3-methoxyphenyl)undecan-1-one]: the melting point was 78 to 80 °C.

On to `CCCCCCCC(O)CCCCc1ccc(O)c(OC)c1` (centres unmarked) [1-(4-hydroxy-3-methoxyphenyl)dodecan-5-ol], for which the “Peak [Ca^2+]i (Average ± SD)” value in data set [3] turned out to be 0 nM. Moreover, in the data set with guinea pig atria (assayed to a maximum of 50 μM), the “HEART RATE (chronotropic activity), result in words” value is “↑weakly”.

For `C[C@H]1O[C@@H](O[C@H]2[C@@H](O)C[C@H](O[C@H]3[C@@H](O)C[C@H](O[C@H]4CC[C@@]5(C)[C@H](CC[C@@H]6[C@@H]5C[C@@H](O)[C@]5(C)[C@@H](C7=CC(=O)OC7)CC[C@]65O)C4)O[C@@H]3C)O[C@@H]2C)C[C@H](O)[C@@H]1O` [digoxin, reference compound], the “time for tension to reach maximum after addition of a dose” value in the data set with guinea pig atria is “a few mins”.

Consider `CCCCCCCCCC(O)CCc1ccc(O)c(OC)c1` (single isomer, unassigned) [enantiomer-1, 1-(4-hydroxy-3-methoxyphenyl)dodecan-3-ol], for which the EC50 with rat mesenteric artery (Rattus norvegicus, arteries 200-300 μm, precontracted with endothelin, read-out: EC50, relaxation of small arteries from rat mesentery) stood at 500 nM.

For the compound `CCCCCCCC(=O)CC(O)CCc1ccc(O)c(OC)c1` (centres unmarked) [3-hydroxy-1-(4-hydroxy-3-methoxyphenyl)dodecan-5-one], the “potency in relaxing rat mesenteric artery / vascular bed, in words” value in the data set on rat mesenteric artery is recorded as “showed potency”.
